Experiment [1] concerns P. aeruginosa clinical isolate MR60. The experiment is described as follows: Effect of analog on ciprofloxacin potency, clinical isolate MR60. It counts as cell-based, Pseudomonas aeruginosa. Here is the method: (§1) The combined treatment was carried out similarly, ensuring that the final concentration of DMSO was 2%.
The subject of experiment [2] is wild type P. aeruginosa cells. The experiment is described as follows: Growth response of wild type cells to analog (viable cell count). In kind it is cell-based, Pseudomonas aeruginosa. The note with it: M63 + 4 μM Fe; 15 h post-inoculation; viable cells vs untreated control. As to the method:
(§2) To this end, wild type and ΔbfrB cells were cultured in M63 media supplemented with 4 μM Fe, in the presence of different concentrations of analog. […] Since BfrB is not essential, it is likely that the cell can compensate for the absence of the iron storage protein. […] The sudden onset of toxicity observed in the second phase, which is not observed with the wild type cells, is probably related to off-target effects that expose a fitness vulnerability caused by the absence of BfrB. Consequently, it is possible to conclude that the dose-dependent growth defect elicited by 11 or 16 on wild type P. aeruginosa cells is largely a consequence of the interaction between the small molecule inhibitors and BfrB in the bacterial cell. This issue was investigated in additional detail (see below) by probing the phenotypic and biochemical response of wild type cells treated with the small molecule inhibitors.

Experiment [3] has as its system ΔbfrB P. aeruginosa cells. The experiment in a line: Growth response of bfrB deletion mutant cells to analog. The settings on record: M63 + 4 μM Fe; 15 h post-inoculation; viable cells vs untreated control. In kind it is cell-based, Pseudomonas aeruginosa. As to the method: as §2
The subject of the next experiment is P. aeruginosa. The experiment in a line: Growth curves and IC50 determination in P. aeruginosa. The settings on record: Pseudomonas aeruginosa; M63 media; growth % from OD600 at 13 h; three independent experiments. In kind it is cell-based, Pseudomonas aeruginosa (PAO1). Here is the method:
(§3) Pre-cultures (5 mL LB media) were grown for 12 h at 37° C. and 220 rpm in 50 mL conical tubes (VWR International, PA) covered with an air permeable membrane. The cells were then centrifuged at 4,000 rpm for 10 min, the resultant cell pellets washed twice in M63 media and then diluted in M63 media to OD600=0.01. Stock solutions (100 mM) of analog in DMSO were prepared weekly and stored at 4° C. Prior to initiating experiments in 96 well plates, the analog stock solution was serially diluted to make 10 mM or 1 mM working solutions in DMSO. A small volume of the appropriate working solution was transferred to a glass vial, diluted with DMSO to 30 μL, and then diluted to a final volume of 1.5 mL with pre-culture cell suspension with an OD600=0.01. The resultant cell suspension (200 μL) was transferred to a clear-bottom polystyrene 96 well plate (VWR), and incubated at 35° C. and 205 cpm for 13 h in an Epoch 2 microplate spectrophotometer (Biotek Instruments, Inc., Vermont). The growth curve in the presence of Ciprofloxacin was obtained in the same plate. […] MIC determinations were carried out using standard broth microdilution methods in 48 well plates and modified M63 media. Cells were incubated at 35° C.

The test system of the next experiment is A. baumannii. The experiment is described as follows: Growth curves and IC50 determination in A. baumannii. In kind it is cell-based, Acinetobacter baumannii (AB5075). The note with it: Acinetobacter baumannii; AB5075; modified M63 media; 48 well-plates. Here is the method: as §3
This idea was tested with A. baumanni AB5075, a highly virulent isolate, which has been proposed as a model strain for the evaluation of pathogenesis and antimicrobial treatments.^66.

A further experiment has as its system P. aeruginosa PAO1. The experiment is described as follows: Effect of analogs on the potency of fluoroquinolone antibiotics, strain PAO1. The settings on record: PAO1. It counts as cell-based, Pseudomonas aeruginosa. Here is the method:
as §1

Experiment [4] has as its system P. aeruginosa clinical isolate MR3B. The experiment in a line: Effect of analog on ciprofloxacin potency, clinical isolate MR3B. It counts as cell-based, Pseudomonas aeruginosa. Here is the method: as §1

As a reminder, the IC50 is the concentration that gives 50% inhibition. A high value points to weaker potency. For the molecule `O=C1NC(=O)c2c(NCCCc3cccc(O)c3)cccc21` [Analog 16, 4-((3-(3-Hydroxyphenyl)propyl)amino)isoindoline-1,3-dione], the “survival, fold lower relative to ciprofloxacin alone” value is “approximately 4 fold” in experiment [1] (analog 16 + ciprofloxacin) and “approximately 20 fold” in experiment [4] (analog 16 + ciprofloxacin). Moreover, the survival result in experiment [1] (analog 16 + ciprofloxacin 1 μg/mL) is listed as “ca. 10%”; in experiment [1] (analog 16 only, 125 μM) it was “ca. 40%”; in experiment [4] (analog 16 + ciprofloxacin 0.2 μg/mL), 0.5%; in experiment [4] (analog 16 only, 125 μM), “ca. 50%”. Besides, the “growth response of wild type cells” value in experiment [2] was “monophasic dose-dependent growth defect”. Further, the “growth response of ΔbfrB mutant cells” value in experiment [3] is on record as “biphasic growth response”. Moreover, the IC50 came to 121 µM in the experiment with P. aeruginosa and 128 µM with A. baumannii. The “% survival, fold lower relative to ciprofloxacin alone” value in the experiment with P. aeruginosa PAO1 (analog 16 125 μM + ciprofloxacin 0.25 μg/mL) is given as “approximately 50 fold”. For the same molecule, the “cell survival, fold lower relative to fluoroquinolone alone” value in the experiment with P. aeruginosa PAO1 (analog 16 125 μM + levofloxacin 0.5 μg/mL) and in the experiment with P. aeruginosa PAO1 (analog 16 125 μM + norfloxacin 0.9 μg/mL) was “approximately 50 fold” each time. For the same molecule, the “survival relative to untreated control” value with P. aeruginosa PAO1 (analog 16 only, 125 μM, 18 h) is on record as roughly 30%.

The record behind these values is US12251370B2, “Small molecule inhibitors of the BfrB:Bfd interaction” (BOARD OF SUPERVISORS OF LOUISIANA STATE UNIVERSITY AND …, priority 2018, dated 2025).
